# Experimental data published in article PMC10641814 (Journal of Medicinal Chemistry, 2023).
# Experiments:
# α2AR = molecular target: T1, α2AR (Homo sapiens, UniProt P08913); assay: Adrenergic α2AR binding ([3H]-RX821002), Eurofins; conditions: read-out: adrenergic alfa2A % inhibition at 1 microM
# T1 sequence (P08913 1-465): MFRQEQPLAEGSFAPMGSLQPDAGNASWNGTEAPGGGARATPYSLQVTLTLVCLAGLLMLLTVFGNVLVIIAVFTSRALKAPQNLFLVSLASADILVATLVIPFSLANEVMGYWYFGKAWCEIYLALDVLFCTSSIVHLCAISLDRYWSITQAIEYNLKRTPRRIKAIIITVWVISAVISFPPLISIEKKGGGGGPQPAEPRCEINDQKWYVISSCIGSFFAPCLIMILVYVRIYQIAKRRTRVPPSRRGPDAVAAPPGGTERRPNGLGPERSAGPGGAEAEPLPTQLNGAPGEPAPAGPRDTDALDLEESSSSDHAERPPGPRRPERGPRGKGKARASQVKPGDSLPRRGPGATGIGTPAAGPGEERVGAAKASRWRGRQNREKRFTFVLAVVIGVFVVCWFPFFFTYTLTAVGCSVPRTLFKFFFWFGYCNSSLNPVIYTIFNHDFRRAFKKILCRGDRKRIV
# Excerpt: (§1) The results were expressed as the %
# (§2) www.eurofinsdiscovery.com.
# h5-HT3R = molecular target: T2, h5-HT3R (Homo sapiens, UniProt P46098); assay: 5-HT3R radioligand binding ([3H]-BRL 43694) in CHO cells
# T2 construct: expressed in transfected cells; host or cells: CHO
# T2 sequence (P46098 24-478): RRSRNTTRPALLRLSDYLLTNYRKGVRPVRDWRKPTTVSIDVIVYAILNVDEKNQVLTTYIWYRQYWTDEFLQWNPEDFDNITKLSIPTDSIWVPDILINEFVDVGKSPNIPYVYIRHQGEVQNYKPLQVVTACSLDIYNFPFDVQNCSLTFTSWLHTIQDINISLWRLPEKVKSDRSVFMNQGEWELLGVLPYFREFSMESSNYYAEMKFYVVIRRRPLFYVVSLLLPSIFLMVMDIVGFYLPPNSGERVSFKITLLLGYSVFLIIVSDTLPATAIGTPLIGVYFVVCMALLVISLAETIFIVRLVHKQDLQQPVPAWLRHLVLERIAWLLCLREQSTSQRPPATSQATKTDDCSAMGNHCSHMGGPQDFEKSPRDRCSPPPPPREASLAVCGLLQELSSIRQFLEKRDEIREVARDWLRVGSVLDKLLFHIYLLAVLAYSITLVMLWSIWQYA
# 5-HT2AR = 5-HT2AR (Homo sapiens, UniProt P28223); assay: 5-HT2AR binding ([3H]-ketanserine), Eurofins; conditions: read-out: serotonin 5-HT2A % inhibition at 1 microM
# Chain of 5-HT2AR (P28223 whole entry): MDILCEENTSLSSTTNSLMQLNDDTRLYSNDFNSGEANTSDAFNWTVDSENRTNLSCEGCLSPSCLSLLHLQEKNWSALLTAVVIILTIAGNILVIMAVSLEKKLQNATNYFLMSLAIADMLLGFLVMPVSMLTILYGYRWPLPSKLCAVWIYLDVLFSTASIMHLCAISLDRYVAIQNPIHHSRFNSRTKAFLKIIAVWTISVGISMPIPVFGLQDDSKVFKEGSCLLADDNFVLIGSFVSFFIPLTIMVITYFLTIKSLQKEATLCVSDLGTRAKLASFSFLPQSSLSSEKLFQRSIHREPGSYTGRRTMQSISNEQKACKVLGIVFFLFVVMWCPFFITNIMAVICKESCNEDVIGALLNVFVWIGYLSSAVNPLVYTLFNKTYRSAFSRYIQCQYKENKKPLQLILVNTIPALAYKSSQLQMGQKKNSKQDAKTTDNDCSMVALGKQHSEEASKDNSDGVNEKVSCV
# Excerpt: as §1, §2
# dopaminergic D3R = dopaminergic D3R (Homo sapiens, UniProt P35462); assay: D3R binding ([3H]-methylspiperone), Eurofins; conditions: read-out: dopamine D3 % inhibition at 1 microM
# Chain of dopaminergic D3R (P35462 whole entry): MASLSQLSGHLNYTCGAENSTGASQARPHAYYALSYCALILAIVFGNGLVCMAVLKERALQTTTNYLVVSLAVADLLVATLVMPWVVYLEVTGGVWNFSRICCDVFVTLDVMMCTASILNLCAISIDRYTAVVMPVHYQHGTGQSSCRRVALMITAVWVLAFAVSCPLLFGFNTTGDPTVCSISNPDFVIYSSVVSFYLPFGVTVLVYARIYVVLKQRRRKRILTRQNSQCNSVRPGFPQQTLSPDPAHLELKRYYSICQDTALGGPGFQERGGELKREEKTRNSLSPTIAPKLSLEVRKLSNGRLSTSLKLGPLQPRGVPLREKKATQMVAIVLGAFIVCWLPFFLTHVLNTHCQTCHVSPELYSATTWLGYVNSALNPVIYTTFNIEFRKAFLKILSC
# Excerpt: as §1, §2
# [1] = molecular target: serotonin transporter SERT (Homo sapiens, UniProt P31645); assay: SERT binding ([3H]-imipramine), Eurofins
# Chain of serotonin transporter SERT (P31645 whole entry): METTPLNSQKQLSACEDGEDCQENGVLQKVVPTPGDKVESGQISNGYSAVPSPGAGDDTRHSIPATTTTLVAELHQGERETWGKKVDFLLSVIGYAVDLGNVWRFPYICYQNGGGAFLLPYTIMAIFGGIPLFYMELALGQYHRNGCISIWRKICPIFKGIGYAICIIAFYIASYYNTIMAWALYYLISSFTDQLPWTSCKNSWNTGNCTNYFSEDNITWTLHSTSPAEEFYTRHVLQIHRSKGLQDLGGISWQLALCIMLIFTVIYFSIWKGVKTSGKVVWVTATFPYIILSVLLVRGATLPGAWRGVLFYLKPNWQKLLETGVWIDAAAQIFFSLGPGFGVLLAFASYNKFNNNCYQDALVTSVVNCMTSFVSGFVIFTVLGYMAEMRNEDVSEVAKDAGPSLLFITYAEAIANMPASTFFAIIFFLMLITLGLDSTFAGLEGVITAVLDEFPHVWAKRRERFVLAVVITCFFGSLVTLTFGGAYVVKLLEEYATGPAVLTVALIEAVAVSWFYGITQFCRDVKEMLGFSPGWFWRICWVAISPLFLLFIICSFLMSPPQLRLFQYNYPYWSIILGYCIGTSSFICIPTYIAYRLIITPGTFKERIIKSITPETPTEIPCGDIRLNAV
# Excerpt: as §1, §2
# 5-HT2BR = 5-HT2BR (Homo sapiens, UniProt P41595); assay: 5-HT2BR binding ([3H]-mesulergine), Eurofins
# Chain of 5-HT2BR (P41595 whole entry): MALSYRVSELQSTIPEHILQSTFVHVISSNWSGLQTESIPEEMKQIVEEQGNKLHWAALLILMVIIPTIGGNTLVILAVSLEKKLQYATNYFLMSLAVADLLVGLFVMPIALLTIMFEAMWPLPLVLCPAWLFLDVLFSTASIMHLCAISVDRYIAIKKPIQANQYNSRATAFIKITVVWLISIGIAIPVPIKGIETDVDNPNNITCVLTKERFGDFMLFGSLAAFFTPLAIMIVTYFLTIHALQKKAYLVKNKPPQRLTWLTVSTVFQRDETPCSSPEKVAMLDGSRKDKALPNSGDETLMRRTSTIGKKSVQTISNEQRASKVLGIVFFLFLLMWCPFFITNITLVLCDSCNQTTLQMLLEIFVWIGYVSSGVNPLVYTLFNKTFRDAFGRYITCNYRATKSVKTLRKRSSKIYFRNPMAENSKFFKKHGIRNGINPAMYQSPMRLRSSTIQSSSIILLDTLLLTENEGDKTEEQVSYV
# Excerpt: as §1, §2
# 5-HT3R = molecular target: T3, 5-HT3R (Cavia porcellus, UniProt O70212); assay: Ex vivo guinea pig ileum contractility, serotonin-induced; conditions: 15 min incubation
# T3 construct: from tissue; host or cells: guinea pig ileum
# T3 sequence (O70212 20-490): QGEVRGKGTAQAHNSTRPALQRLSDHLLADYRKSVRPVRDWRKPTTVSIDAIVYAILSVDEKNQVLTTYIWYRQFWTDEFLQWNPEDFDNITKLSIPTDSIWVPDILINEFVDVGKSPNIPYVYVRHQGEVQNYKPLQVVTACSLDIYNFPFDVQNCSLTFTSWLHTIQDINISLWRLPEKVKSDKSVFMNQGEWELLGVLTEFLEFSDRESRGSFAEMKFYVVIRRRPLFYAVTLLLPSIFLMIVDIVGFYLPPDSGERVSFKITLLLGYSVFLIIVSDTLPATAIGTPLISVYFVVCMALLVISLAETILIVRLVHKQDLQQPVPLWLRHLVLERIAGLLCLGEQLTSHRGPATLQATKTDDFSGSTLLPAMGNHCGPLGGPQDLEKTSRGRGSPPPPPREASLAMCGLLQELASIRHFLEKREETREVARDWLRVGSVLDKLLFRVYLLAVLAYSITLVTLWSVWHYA
# [2] = test system: hippocampus of rats injected with oAβ25–35; assay: Western blot of hippocampal AD biomarkers in oAβ25–35-injected rats; type: in vivo, rat; conditions: oAβ25–35 icv
# Method: As previously detailed,[37],[64] to induce the acute model of AD (oAβ25–35 model), rats were divided into three groups. […] The animals were anesthetized with an intraperitoneal (ip) injection of a mixture of ketamine and xylazine (80 and 10 mg/kg b.w., respectively). Scrambled peptide and oAβ25–35 were injected directly into the lateral ventricles at a rate of 2 μL/min using a David-Kopf stereotaxic apparatus (coordinates of injection: AP −1 mm, L ±1.5 mm, DV −3.5 mm).
# On day 14, animals were subjected to a behavioral memory test (T-maze) and sacrificed on day 15 by decapitation.
# 2—A preventive approach: This treatment was started at the same time as the induction of amyloid toxicity and consisted of implanting ip, and during the same anesthetic procedure necessary for the icv injection of oAβ25–35, an osmotic pump (Alzet-EML2, Charles-River, France) which continuously delivered the molecules for 1 week at the dose of 3 mg/kg/day. On day 7, animals were submitted to a behavioral memory test (T-maze) and sacrificed on day 8 by decapitation.
# At the time of sacrifice, all hippocampi were dissected out, weighed, and rapidly frozen in liquid nitrogen for Western blot (WB) analysis.
# Western blot analyses were performed on the whole hippocampus as previously described.[37] All antibodies used are detailed in Table S3. Briefly, after sacrifice, hippocampi were microdissected, weighed, immediately frozen in liquid nitrogen, and stored at −20 °C. Tissues were sonicated (VibraCell; Sonics & Materials, USA) in a lysis buffer[37] and centrifuged (4 °C). Supernatants were collected, and the protein concentration was measured using a bicinchoninic Acid (BCA) assay (ThermoFisher Scientific, France). […] The membranes were incubated overnight (4 °C) with the primary antibody, washed, and then incubated for 2 h with the appropriate horseradish peroxidase-conjugated secondary antibody. […] The intensity of the immunoreactive signals was quantified using Image-J software (NIH, Bethesda, […], USA). β-Tubulin (β-Tub) was used as a loading control for all experiments.
# [3] = 1.5 mg/kg ip twice a day for 7 days
# [4] = 3 mg/kg/day osmotic pump 1 week
# [5] = curative and preventive approach
structure (smiles),measurement,setting,value
"Cl.Clc1cccc(Cn2ccc3c(N4CCNCC4)nc4ccccc4c32)c1 [PZ-1922, 1-(3-Chlorobenzyl)-4-(piperazin-1-yl)-1H-pyrrolo[3,2-c]quinoline Hydrochloride]",inhibition at 1 µM,α2AR,22%
same,Ki,"h5-HT3R; 0.5 nM [3H]-BRL 43694, CHO cells expressing h5-HT3R, two independent experiments",0.45 nM
same,inhibition at 1 µM,h5-HT3R; read-out: inhibition of 5-HT3R binding in selectivity screen,> 50%
same,inhibition at 1 µM,5-HT2AR,5%
same,inhibition at 1 µM,dopaminergic D3R,31%
same,inhibition at 1 µM,[1],1.8%
same,"effect on 5-HT2BR (cardiac safety, valvulopathy)","5-HT2BR; binding, 1 μM",lack of effect
same,inhibition at 1 µM,5-HT2BR; read-out: serotonin 5-HT2B % inhibition at 1 microM,17%
same,pD2' antagonism at 5-HT3R,5-HT3R,7.32
same,pD2' antagonism at 5-HT3R,"5-HT3R; listed as 16 (PZ1922), 15 min","7,32"
same,"hippocampal Caspase-3 and Pro-caspase-3 expression, curative strategy",[2]; [3],decreased expression of Caspase-3 and Pro-caspase-3
same,"hippocampal PSD-95 and SYN levels, curative treatment",[2]; [3],reversed PSD-95 and SYN levels
same,"hippocampal Caspase-3 and Pro-caspase-3 expression, preventive treatment",[2]; [4],prevented increased expression of Caspase-3 and Pro-caspase-3
same,"hippocampal PSD-95 and SYN levels, preventive treatment",[2]; [4],reversed PSD-95 and SYN levels
same,hippocampal GFAP increase,[2]; [5],Neither PZ-1922 nor intepirdine impacted the GFAP increase
same,hippocampal Iba1 level,[2]; [5],decreased the Iba1 level regardless of the applied approach
